Measurements reported in patent US7456197B2, “Pyridinium cationic lipids as gene transfer agents” (The Texas A&M University System, priority 2003, dated 2008).
Entries after “also recorded” stand apart in the source; their conditions may differ.

Tests used:
[1] = tested on: cancer cell line NCI-H23; assay: WST-1 viability assay of transfected cells; type: cell-based, human; conditions: NCI-H23 transfected with lipoplexes, Chol 1:1; FIG. 6
Method: FIG. 6. Viability assay results for the cancer cell line NCI-H23 transfected with 5AMyr-5EMyr and DOTAP (Cl^−)-based lipoplexes. The other characteristics were the same as in the transfection experiment represented in FIG. 5.
In order to assess the cytotoxicity associated with every anion, a WST-1^28 viability assay was conducted in parallel.

[2] = tested on: lung cancer cell line NCI-H23; assay: Luciferase (pGL3) transfection efficiency of lipoplexes, NCI-H23; type: cell-based, human; conditions: for transfection efficiency, counterion study: 5Myr/Chol 1:1, PBS, sonicated two sequences of 15 minutes, FIG. 5; for transfection efficiency (in words): cholesterol as helper lipid 1:1, charge ratio lipid/DNA 2:1
Method: (§1) The three series of cationic lipids newly synthesized were assessed for their transfection efficiency in vitro, using the experimental conditions optimized in a previous study.^23 Essentially the cationic lipids were mixed with cholesterol at a 1:1 molar ratio, dissolved in chloroform/methanol and dried under vacuum to generate a lipid film. The dried lipid film was hydrated with sterile phosphate buffer isotonic saline with pH=7.4 (PBS) and sonicated to yield cationic liposomes. The resulting liposomal solution was allowed to react with a DNA solution to form the final cationic lipid-DNA complexes (lipoplexes), which were assessed for transfection efficiency using different cell cultures. We used a pGL3 plasmid (Promega, Madison, Wisc.), encoding a firefly luciferase gene under the control of the constitutively active SV40 promoter as the reporter for the transfection efficiency. An optimal^23 electrostatic charge ratio cationic lipid/DNA of 2:1 was used in all preparations. […] The ability of these new cationic lipids to generate relatively small cationic liposomes could be attributed to the relatively large curvature radius induced in the bilayer by the bulky pyridinium cationic head.
(§2) Dioleoylphosphatidylethanolamine (DOPE), cholesterol (CHOL), N-(2,3-dioleoyloxypropyl)-N,N,N-trimethylammonium chloride (DOTAP) were commercial products. The purity of the lipids was checked by thin layer chromatography and also by differential scanning calorimetry (DSC), which was also used for determining the critical temperature Tc. For the preparation of the liposomes a protocol optimized for this type of compounds was adopted as follows. The cationic lipid (with or without helper lipid) was dissolved in chloroform/methanol (2/1, v/v) to reach a final concentration of 1 mM for the charged species. From this stock solution 50 μL were aliquoted in a 1 mL tube and the solvent was evaporated in a SpeedVac evaporator, under vacuum, for 1 h. The dried lipid film was prepared by removing the traces of organic solvent in a dessicator, over Drierite®, under vacuum, overnight. The film was hydrated with 500 μL sterile phosphate buffer saline (PBS) the tube was purged with sterile N2, and vortexed for 1 minute. The liposomes were generated by sonicating the tube in a water bath sonicator for 5-30 minutes at 62° C. and at 37° C. for DOTAP. After sonication the preparations were allowed to reach room temperature.
For generating the lipoplexes, 1.4-2.8 μL plasmid DNA solution (0.5 μg/μL) was diluted with 100 μL Optimem®. A liposome solution was prepared separately by diluting the initial liposomal stock solution (0.1 mM in cationic lipid) with Optimem® in specified proportions, to reach a final volume of 50 μL. Over this liposome solution 50 μL of the DNA stock solution was added, the tube was incubated for 30 minutes at room temperature and then the content diluted with 500 μL Optimem® (final volume of the lipoplex stock solution: 600 μL).
The lipoplexes was tested for their transfection properties over five different cancer cell lines—breast carcinoma (MCF-7 and MDA-Mb231), lung carcinoma (NCI-H23), prostate carcinoma (DU-145) and brain carcinoma (SWB-95). The cells were maintained in 10% fetal bovine serum (FBS)—enriched RPMI 1640 at 37° C. and 5% CO2 in a humidified atmosphere. Twenty-four hours prior to transfection the cells were transferred in 96-wells microtiter plate at a density of 20,000 cells/well. Each well received 100 μL medium and the plate was incubated in the same conditions. All experiments were done in triplicate or quadruplicate.
Immediately before transfection the medium was removed from each well and the cells were briefly washed with 200 μL sterile PBS. After removal of the PBS each well received 100 μL lipoplex stock solution and the plate was placed in the incubator for 1 hour. Then, 100 μL medium was added to each well and the plate was incubated for 24 hours. […]

[3] = Critical (phase transition) temperature Tc by differential scanning calorimetry; type: physicochemical; conditions: for Tc (critical temperature), Pure: pure lipid
Method: General. Melting points for the diols and the phase transition temperature Tc for the cationic lipids were determined by differential scanning calorimetry (DSC), using a TA-Instruments Q100 DSC, and a heating rate of 5° C./minute. The IR spectra were recorded on a Nicolet Avatar 360 FTIR spectrophotometer in the range 650-4000 cm^−1 using a ZnSe—attenuated total reflectance (ATR) accessory. The compounds were solved in a small amount of solvent (MeOH for the diols, CHCl3 for the lipids), and the resulted solutions were left to evaporate to dryness on the surface of the ZnSe crystals of the ATR accessory. The NMR spectra were recorded at ≈303 K with a Varian Inova spectrometer equipped with a 5 mm indirect detection probe, operating at 500 MHz for ^1H-NMR and at 125 MHz for ^13C-NMR. Chemical shifts are reported as δ values, using TMS as internal standard for proton spectra and the solvent resonance for carbon spectra. Assignments were made based on signal intensity, selective decoupling, COSY (^1H-^1H) and HETCOR (^1H-^13C) sequences. Elemental analyses were performed by combustion, using a Perkin Elmer 2400 Series II CHNS analyser.
as §2
Materials and Methods. Melting points for the diols, acetates and ketals were determined on a Boetius heating plate microscope and are uncorrected. For the cationic lipids 21 and 25 the phase transition temperature Tc was determined by differential scanning calorimetry (DSC), using a TA-Instruments Q100 DSC, and a heating rate of 5° C./minute. The IR spectra were recorded on a Nicolet Avatar 360 FTIR spectrophotometer, in the range 650-4000 cm^−1, using a ZnSe—attenuated total reflectance (ATR) accessory. The compounds were solved in a small amount of solvent (MeOH for the diols, CHCl3 for the esters), the resulted solutions being left to evaporate to dryness on the surface of the ZnSe crystals of the ATR accessory. This technique was imposed by the poor results obtained in transmission mode for some of the compounds, due to the lack of crystallization, hygroscopicity and other problems related with working with KBr pellets. The NMR spectra were recorded at ≈303 K with a Varian Gemini 300BB spectrometer operating at 300 MHz for ^1H and at 75 MHz for ^13C. Chemical shifts are reported as δ values, using TMS as internal standard for proton spectra and the solvent resonance for carbon spectra: 77.00 ppm in CDCl3, 39.50 ppm in DMSO-d6, the line from 123.50 ppm in pyridine-d5, 62.80 ppm in nitromethane-d3, 30.10 ppm in dimethylformamide-d7. Assignments were made based on signal intensity, selective decoupling and COSY (^1H-^1H) and HETCOR (^1H-^13C) sequences. Nitrogen elemental analysis was performed by combustion, mixing the samples with small amounts of quartz sand.

[4] = Cationic liposome size by dynamic light scattering; type: physicochemical
Method: as §1, §2

[5] = cholesterol at 1:1 molar ratio to cationic lipid
[6] = molar ratio of cholesterol to lipid halved

Row | SMILES | Tc (critical temperature), Pure [3] [°C] | Tc (critical temperature), With cholesterol (1:1 molar ratio) ([3]; 1:1 molar ratio) [°C] | transfection efficiency (in words) [2] | also measured
1 | CCCCCCCCCCCCCC(=O)OCC(COC(=O)CCCCCCCCCCCCC)[n+]1c(C)cc(C)cc1C.[I-] [Lipid 5EMyr, 1-(1,3-dimyristoyloxypropane-2-yl)-2,4,6-trimethylpyridinium iodide] | 60.8 | 80.1 |  | cytotoxicity (WST-1 viability) [1]: more cytotoxic; transfection efficiency, counterion study [2]: followed by the hexafluorophosphate 5AMyr, chloride 5DMyr, tetrafluoroborate 5CMyr, and iodide 5EMyr
2 | CCCCCCCC/C=C\CCCCCCCC(=O)OCC(COC(=O)CCCCCCC/C=C\CCCCCCCC)[n+]1c(C)cc(C)cc1C.F[P-](F)(F)(F)(F)F [Lipid 5AOle, 1-(1,3-dioleoyloxypropane-2-yl)-2,4,6-trimethylpyridinium hexafluorophosphate] | 17.0 | 31.0 | low transfection efficiency | 
3 | CCCCCCCCCCCCCC(=O)OCC(COC(=O)CCCCCCCCCCCCC)[n+]1c(C)cc(C)cc1C.[O-][Cl+3]([O-])([O-])[O-] [Lipid 5BMyr, 1-(1,3-dimyristoyloxypropane-2-yl)-2,4,6-trimethylpyridinium perchlorate] | 60.2 | 58.4 |  | cytotoxicity (WST-1 viability) [1]: more cytotoxic; transfection efficiency, counterion study [2]: most efficient lipoplexes
4 | CC(=O)OCC(COC(C)=O)[n+]1c(C)cc(C)cc1C.F[B-](F)(F)F |  |  |  | melting point: 110 to 111 °C
5 | CCCCCCCCCCCC(=O)Oc1ccc(CC[n+]2c(C)cc(C)cc2C)cc1OC(=O)CCCCCCCCCCC.F[P-](F)(F)(F)(F)F [Lipid 7ALau, 1-(3,4-dilauroyloxyphenylethyl)-2,4,6-trimethylpyridinium hexafluorophosphate] | 140.7 | 126.9 | best transfection efficiency | transfection efficiency relative to another derivative of series 7 ([2]; cholesterol 1:1, FIG. 2): about five times more active than the decanoyl derivative 7ACpc; also recorded: about ten times more efficient than the oleoyl derivative 7AOle
6 | CCCCCCCCCCCCCC(=O)OCC(COC(=O)CCCCCCCCCCCCC)[n+]1c(C)cc(C)cc1C.F[B-](F)(F)F [Lipid 5CMyr, 1-(1,3-dimyristoyloxypropane-2-yl)-2,4,6-trimethylpyridinium tetrafluoroborate] | 58.4 | 55.2 |  | cytotoxicity (WST-1 viability) [1]: minimum cytotoxicity
7 | CCCCCCCCCCCCCC(=O)OCC(C[n+]1c(C)cc(C)cc1C)OC(=O)CCCCCCCCCCCCC.F[P-](F)(F)(F)(F)F (stereo not shown) [Lipid 3AMyr, 1-(2,3-dimyristoyloxypropyl)-2,4,6-trimethylpyridinium hexafluorophosphate] | 121.3 | 112.5 | highest transfection peaks | average size of the cationic vesicles [4, 5]: 132 nm; average size of the cationic vesicles [4, 6]: 89 nm; Tc (critical temperature), With DOPE (1:1 molar ratio) ([3]; with DOPE, 1:1 molar ratio): 107.7 °C
8 | CCCCCCCC/C=C\CCCCCCCC(=O)OCC(C[n+]1c(C)cc(C)cc1C)OC(=O)CCCCCCC/C=C\CCCCCCCC.F[P-](F)(F)(F)(F)F (stereo not shown) [Lipid 3AOle, 1-(2,3-dioleoyloxypropyl)-2,4,6-trimethylpyridinium hexafluorophosphate] | 67.9 | 58.5 | secondary peak | average size of the cationic vesicles [4, 5]: 113 nm; average size of the cationic vesicles [4, 6]: 103 nm
9 | CCCCCCCCCCCCCCCCCC(=O)OCC(C[n+]1c(C)cc(C)cc1C)OC(=O)CCCCCCCCCCCCCCCCC.F[P-](F)(F)(F)(F)F (stereo not shown) [Lipid 3ASte, 1-(2,3-distearoyloxypropyl)-2,4,6-trimethylpyridinium hexafluorophosphate] | 122.5 | 112.7 |  | 
10 | CCCCCCCC/C=C\CCCCCCCC(=O)Oc1ccc(CC[n+]2c(C)cc(C)cc2C)cc1OC(=O)CCCCCCC/C=C\CCCCCCCC.F[P-](F)(F)(F)(F)F [Lipid 7AOle, 1-(3,4-dioleoyloxyphenylethyl)-2,4,6-trimethylpyridinium hexafluorophosphate] | 106.8 | 97.3 |  | 
11 | CC(=O)OCC(C[n+]1c(C)cc(C)cc1C)OC(C)=O.F[B-](F)(F)F (stereo not shown) |  |  |  | melting point: 119 to 120 °C
12 | CCCCCCCCCCCCCCCC(=O)OCC(COC(=O)CCCCCCCCCCCCCCC)[n+]1c(C)cc(C)cc1C.F[P-](F)(F)(F)(F)F [Lipid 5APal, 1-(1,3-dipamitoyloxypropane-2-yl)-2,4,6-trimethylpyridinium hexafluorophosphate] | 75.5 | 61.0 |  | 
